From the supplement of paper PMC10307832

How the values were obtained:
Test in all cases: relative viability (nuclei count vs DMSO), 5 days (fraction); higher = more cells survive
MK-8033 + OSI-027 = compound: Cn1cc(-c2cnc3ccc4ccc(CS(=O)(=O)NCc5ccccn5)cc4c(=O)c3c2)cn1 [MK-8033] + COc1cccc2cc(-c3nc([C@H]4CC[C@H](C(=O)O)CC4)n4ncnc(N)c34)[nH]c12 [OSI-027] (partner 0.5 µM)
In short: (§1)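 Relative viability was taken as the ratio of nuclei in treated wells to nuclei in vehicle wells. Lung cancer cell lines in 1536-well plates received compounds by pin tool one day after seeding, either one drug alone or a fixed anchor-drug dose plus five library-drug doses (not always all listed) in √10 steps. Nuclei were counted on 4× images after 5 days of treatment, and values are medians of duplicate plates.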

Irinotecan + Foretinib = compound: CCc1c2c(nc3ccc(OC(=O)N4CCC(N5CCCCC5)CC4)cc13)-c1cc3c(c(=O)n1C2)COC(=O)[C@]3(O)CC [Irinotecan] + COc1cc2c(Oc3ccc(NC(=O)C4(C(=O)Nc5ccc(F)cc5)CC4)cc3F)ccnc2cc1OCCCN1CCOCC1 [Foretinib] (partner 0.25 µM)
In short: as §1

RU-SKI 43 + Pemetrexed = compound: CC[C@@H](C)CNCC(=O)N1CCC2=C([C@@H]1COC3=CC=CC(=C3)C)C=CS2 [RU-SKI 43] + Nc1nc2[nH]cc(CCc3ccc(C(=O)N[C@@H](CCC(=O)O)C(=O)O)cc3)c2c(=O)[nH]1 [Pemetrexed] (partner 0.2 µM)
In short: as §1

RU-SKI 43 + Luminespib = compound: CC[C@@H](C)CNCC(=O)N1CCC2=C([C@@H]1COC3=CC=CC(=C3)C)C=CS2 [RU-SKI 43] + CCNC(=O)c1noc(-c2cc(C(C)C)c(O)cc2O)c1-c1ccc(CN2CCOCC2)cc1 [Luminespib] (partner 0.01 µM)
In short: as §1

Row | Cell Line | relative viability (MK-8033 + OSI-027; first compound 0.02 µM) | relative viability (MK-8033 + OSI-027; first compound 0.06325 µM) | relative viability (MK-8033 + OSI-027; first compound 0.2 µM) | relative viability (MK-8033 + OSI-027; first compound 0.6325 µM) | relative viability (MK-8033 + OSI-027; first compound 2 µM) | relative viability (Irinotecan + Foretinib; first compound 0.6325 µM) | relative viability (Irinotecan + Foretinib; first compound 2 µM) | relative viability (Irinotecan + Foretinib; first compound 6.325 µM) | relative viability (Irinotecan + Foretinib; first compound 20 µM) | relative viability (RU-SKI 43 + Pemetrexed; first compound 0.1 µM) | relative viability (RU-SKI 43 + Pemetrexed; first compound 0.3162 µM) | relative viability (RU-SKI 43 + Pemetrexed; first compound 1 µM) | relative viability (RU-SKI 43 + Pemetrexed; first compound 3.162 µM) | relative viability (RU-SKI 43 + Pemetrexed; first compound 10 µM) | relative viability (RU-SKI 43 + Luminespib; first compound 0.1 µM) | relative viability (RU-SKI 43 + Luminespib; first compound 0.3162 µM) | relative viability (RU-SKI 43 + Luminespib; first compound 1 µM) | relative viability (RU-SKI 43 + Luminespib; first compound 3.162 µM) | relative viability (RU-SKI 43 + Luminespib; first compound 10 µM)
1 | PC-3 [JPC-3] | 0.78 | 0.647 | 0.646 | 0.776 | 0.692 | 0.912 | 0.667 | 0.323 | 0.368 | 1.09 | 0.917 | 1.37 | 1.15 | 1.2 | 0.738 | 0.633 | 0.795 | 0.615 | 0.537
2 | SK-LU-1 | 0.347 | 0.352 | 0.315 | 0.4 | 0.371 | 0.623 | 0.382 | 0.295 | 0.224 | 0.969 | 1.16 | 1.07 | 1.04 | 0.939 | 0.225 | 0.215 | 0.202 | 0.227 | 0.215
3 | NCI-H1975 | 0.692 | 0.645 | 0.563 |  | 0.571 | 0.816 | 0.964 | 0.385 | 0.158 | 0.311 | 0.298 | 0.341 | 0.327 | 0.292 | 0.199 | 0.172 | 0.229 | 0.157 | 0.25
4 | HARA | 0.569 | 0.265 | 0.487 | 0.429 | 0.418 | 0.315 | 0.174 | 0.116 | 0.127 | 0.265 | 0.264 | 0.259 | 0.277 | 0.254 | 0.687 | 0.765 | 0.918 | 0.974 | 0.672
5 | H3255 | 0.621 | 0.551 | 0.597 | 0.491 | 0.639 | 0.398 | 0.558 | 0.36 | 0.305 | 0.554 | 0.61 | 0.571 | 0.555 | 0.595 | 0.928 | 0.951 | 1.23 | 0.76 | 0.849
6 | EKVX | 0.731 | 0.665 | 0.637 | 0.642 | 0.723 | 0.199 | 0.726 | 0.529 | 0.164 | 0.419 | 0.344 | 0.417 | 0.407 | 0.393 | 0.939 | 0.809 | 0.758 | 0.932 | 0.833
7 | NCI-H1666 | 0.886 | 0.754 | 0.771 | 0.94 | 0.803 | 0.774 | 0.689 | 0.654 | 0.404 | 0.864 | 0.914 | 0.901 | 0.815 | 0.844 | 0.941 | 1.03 | 1.03 | 0.942 | 0.833
8 | NCI-H1915 | 0.649 | 0.559 | 0.62 | 0.65 | 0.596 | 0.45 | 0.283 | 0.192 | 0.2 | 0.483 | 0.693 | 0.602 | 0.515 | 0.443 | 0.837 | 1.44 | 1.02 | 0.869 | 0.895
9 | EPLC-272H | 0.271 | 0.291 | 0.299 | 0.306 | 0.276 | 0.283 | 0.235 | 0.168 | 0.297 | 0.349 | 0.405 | 0.243 | 0.317 | 0.238 | 0.467 | 0.182 | 0.73 | 0.423 | 0.278
10 | RERF-LC-KJ | 0.554 | 0.535 | 0.531 | 0.521 | 0.509 | 0.956 | 0.815 | 0.518 | 0.411 | 0.48 | 0.462 | 0.508 | 0.457 | 0.482 | 1.25 | 1.01 | 1.44 | 1.3 | 1
11 | NCI-H2126 | 0.752 | 0.666 | 0.764 | 0.595 | 0.808 |  | 1.18 | 0.67 | 0.51 | 0.724 | 0.745 | 0.682 | 0.739 | 0.709 | 0.837 | 1.09 | 1.11 | 0.959 | 0.891
12 | NCI-H1355 | 0.366 | 0.296 | 0.404 | 0.423 | 0.411 |  | 0.622 | 0.321 | 0.259 | 1.02 | 1.09 | 1.09 | 1.14 | 1.05 | 0.577 | 0.822 | 0.869 | 0.76 | 0.741
13 | A-427 | 0.539 | 0.463 | 0.431 | 0.527 | 0.4 |  | 0.24 | 0.229 | 0.219 | 1.02 | 0.948 | 1.15 | 1.04 | 0.995 | 0.851 | 1.2 | 1 | 0.668 | 0.789
14 | NCI-H3122 | 1.05 | 0.957 | 0.926 | 0.991 | 0.916 | 0.833 | 0.236 | 0.183 | 0.171 | 0.202 | 0.216 | 0.198 | 0.193 | 0.19 | 0.0907 | 0.0845 | 0.103 | 0.0966 | 0.0897
15 | SW 900 | 0.597 | 0.437 | 0.515 | 0.448 | 0.597 | 0.898 | 0.667 | 0.393 | 0.448 | 0.484 | 0.494 | 0.498 | 0.478 | 0.461 | 0.196 | 0.188 | 0.195 | 0.169 | 0.151
16 | NCI-H1437 | 1.03 | 0.849 | 0.808 | 0.839 | 0.83 | 0.954 | 0.616 | 0.42 | 0.368 | 0.318 | 0.352 | 0.328 | 0.306 | 0.295 | 1.07 | 1.26 | 1.15 | 1.1 | 1.04
17 | COR-L23 | 0.814 | 0.743 | 0.701 | 0.749 | 0.736 | 0.525 | 0.446 | 0.183 | 0.192 | 0.203 | 0.202 | 0.205 | 0.22 | 0.189 | 0.547 | 0.573 | 0.93 | 0.869 | 0.614
18 | NCI-H1651 | 0.735 | 0.541 | 0.757 | 0.646 | 0.699 | 0.593 | 0.59 | 0.295 | 0.205 | 0.556 | 0.701 | 0.744 | 0.557 | 0.59 | 0.697 | 0.9 | 0.915 | 0.807 | 0.658
19 | NCI-H2087 | 0.546 | 0.519 | 0.443 | 0.642 | 0.617 | 0.748 | 0.326 | 0.169 | 0.192 | 0.684 | 0.762 | 0.714 | 0.694 | 0.692 | 0.158 | 0.173 | 0.193 | 0.145 | 0.131
20 | NCI-H2342 | 0.588 | 0.64 | 0.719 | 0.665 | 0.632 | 1.17 | 0.928 | 0.826 | 0.525 | 0.757 |  | 0.831 | 0.812 | 0.711 | 0.686 | 0.667 | 0.713 | 0.62 | 0.617
21 | ChaGo-K-1 | 0.51 | 0.536 | 0.528 | 0.552 | 0.511 | 0.65 | 0.367 | 0.255 | 0.248 | 0.268 | 0.299 | 0.249 | 0.284 | 0.265 | 0.661 | 0.566 | 0.723 | 0.645 | 0.516
22 | NCI-H661 | 0.727 | 0.656 | 0.687 | 0.699 | 0.668 | 0.957 | 0.913 | 0.605 | 0.397 | 0.874 | 1.05 | 0.902 | 0.952 | 0.861 | 0.942 | 1.03 | 0.947 | 0.932 | 0.898
23 | LXF-289 | 0.809 | 0.668 | 0.667 | 0.83 | 0.806 | 1.05 | 0.615 | 0.167 | 0.2 | 0.924 | 0.862 | 0.939 | 0.902 | 0.999 | 0.729 | 0.853 | 0.852 | 0.751 | 0.568
24 | LC-2-ad | 0.806 | 0.91 |  | 0.884 | 0.789 | 0.73 | 0.621 | 0.288 | 0.235 | 0.262 | 0.25 | 0.31 | 0.258 | 0.247 | 0.987 | 1.1 | 1 | 1.04 | 0.956
25 | NCI-H2085 | 0.762 | 0.728 | 0.653 | 0.643 | 0.7 | 1.06 | 0.775 | 0.464 | 0.54 | 1.02 | 0.899 | 0.894 | 0.85 | 0.845 | 0.398 | 0.481 | 0.591 | 0.431 | 0.407
